This note sets out measurements from patent US7629294B2, “Pyrazolopyrimidines” (Bayer CropScience LP, priority 2004, dated 2009).

Structures are written as SMILES.

The first series is described as follows: physchem. Conditions: logP.
In general, chromatographic logP refers to lipophilicity estimated from chromatographic retention. High values mean higher lipophilicity, low ones lower lipophilicity. `C[C@@H](Nc1c(-c2ccc(F)cc2Cl)c(Cl)nc2c(C(N)=O)cnn12)C(C)(C)C` came in with a chromatographic logP of 3.88.
Regarding `C[C@@H](Nc1c(-c2ccc(F)cc2Cl)c(Cl)nc2c(C(=O)NO)cnn12)C(C)(C)C`, the chromatographic logP is 3.51.
The same measure, in the same setting: under `C[C@@H](Nc1c(-c2ccc(F)cc2Cl)c(Cl)nc2c(C(N)=NO)cnn12)C(C)(C)C` stands 2.47; under `CC(C)[C@@H](C)Nc1c(-c2ccc(C#N)cc2Cl)c(Cl)nc2c(C(=O)O)cnn12` (single isomer, unassigned) [Example XIX], 2.9.
Turning to `C[C@H](Nc1c(-c2ccc(C#N)cc2Cl)c(Cl)nc2c(C(=O)O)cnn12)C(F)(F)F` (single isomer, unassigned) [Example XXII], the chromatographic logP was found to be 2.63.
`CC(C)[C@@H](C)Nc1c(-c2ccc(C(N)=O)cc2Cl)c(Cl)nc2c(C(=O)O)cnn12` (single isomer, unassigned) [Example XX] gave a chromatographic logP of 1.96.
Same read-out and setting: under `COC(=O)c1cnn2c(N[C@H](C)C(C)C)c(-c3ccc(C#N)cc3Cl)c(Cl)nc12` (single isomer, unassigned) [drawing 52 atropisomer A] stands 3.64.
For the molecule `COC(=O)c1cnn2c(N[C@@H](C)C(C)C)c(-c3ccc(C#N)cc3Cl)c(Cl)nc12` (single isomer, unassigned) [drawing 53 atropisomer A], the chromatographic logP worked out at 3.72.
In the case of `COC(=O)c1cnn2c(N[C@@H](C)C(F)(F)F)c(-c3ccc(C#N)cc3Cl)c(Cl)nc12` (single isomer, unassigned) [drawing 54 atropisomer A], the chromatographic logP stood at 3.32.
As for `CC(Nc1c(-c2ccc(F)cc2Cl)c(Cl)nc2c(Br)cnn12)C(C)(C)C` (stereo not shown) [3-bromo-5-chloro-6-(2-chloro-4-fluorophenyl)-N-(1,2,2-trimethylpropyl)pyrazolo[1,5-a]pyrimidin-7-amine], the chromatographic logP turned out to be 5.78.
The molecule `N#Cc1ccc(Br)c(Cl)c1` [3-chloro-4-bromobenzonitrile] gave a chromatographic logP of 2.82.
The molecule `C[C@@H](Nc1c(-c2ccc(F)cc2Cl)c(Cl)nc2c(C3=NOCCN3)cnn12)C(C)(C)C` [Example IX] gave a chromatographic logP of 3.23.
In turn, `C[C@@H](Nc1c(-c2ccc(F)cc2Cl)c(Cl)nc2c(C3=NOCCO3)cnn12)C(C)(C)C` [Example VIII] returned a chromatographic logP of 4.43.
In turn, `C[C@@H](Nc1c(-c2ccc(F)cc2Cl)c(Cl)nc2c(-c3ncco3)cnn12)C(C)(C)C` [Example VII] had a chromatographic logP of 4.72.
The molecule `C[C@@H](Nc1c(-c2ccc(F)cc2Cl)c(Cl)nc2c(-c3nsc(=O)o3)cnn12)C(C)(C)C` [Example VI] showed a chromatographic logP of 5.38.
The same measure, in the same setting: the result for `CCC(C)c1c(Cl)nc2c(C(=O)O)cnn2c1N[C@@H](C)C(F)(F)F` (stereo partly drawn) [Example XII, 5-chloro-6-(sec-butyl)-7-[(S)-3-trifluoroisopropylamino]pyrazolo[1,5-a]pyrimidine-3-carboxylic acid] reads 2.88; that for `CCC(C)c1c(Cl)nc2c(C(=O)O)cnn2c1N[C@@H](C)C(C)C` (stereo partly drawn) [Example XIV, 5-chloro-6-(sec-butyl)-7-[(S)-3-methyl-2-butylamino]pyrazolo[1,5-a]pyrimidine-3-carboxylic acid], 3.52; that for `CC(C)[C@@H](C)Nc1c(C2CCCC2)c(Cl)nc2c(C(=O)O)cnn12` [Example XV, 5-chloro-6-cyclopentyl-7-[(R)-3-methyl-2-butylamino]pyrazolo[1,5-a]pyrimidine-3-carboxylic acid], 3.7.
The molecule `C[C@H](Nc1c(C2CCCC2)c(Cl)nc2c(C(=O)O)cnn12)C(F)(F)F` [Example XVII, 5-chloro-6-cyclopentyl-7-[(S)-3-trifluoroisopropylamino]pyrazolo[1,5-a]pyrimidine-3-carboxylic acid] displayed a chromatographic logP of 3.06.
As to `CC(C)[C@H](C)Nc1c(C2CCCC2)c(Cl)nc2c(C(=O)O)cnn12` [Example XVI], the chromatographic logP came out at 3.7.
On the same count and under the same terms, under `CC(C)C(C)Nc1c(-c2ccc(F)cc2Cl)c(Cl)nc2c(-c3ccccn3)cnn12` (stereo not shown) [compound 538] stands 3.54; under `COC(=O)C(C(=O)OC)c1ccc(C#N)cc1Cl` [dimethyl(2-chloro-4-cyanophenyl)malonate], 2.34; under `COC(=O)c1cnn2c(Cl)c(-c3ccc(C#N)cc3Cl)c(Cl)nc12` [methyl 5,7-dichloro-6-(2-chloro-4-cyanophenyl)pyrazolo[1,5-a]pyrimidine-3-carboxylate], 2.85.
The same measure, in the same setting: the result for `CCC(C)c1c(Cl)nc2c(C(=O)OC)cnn2c1Cl` (stereo not shown) [methyl 5,7-dichloro-6-(sec-butyl)-pyrazolo[1,5-a]pyrimidine-3-carboxylate] reads 3.13; that for `COC(=O)c1cnn2c(Cl)c(C3CCCC3)c(Cl)nc12` [methyl 5,7-dichloro-6-cyclopentylpyrazolo[1,5-a]pyrimidine-3-carboxylate], 3.31.

The same series, now with this note: logPs.
The molecule `Cc1ccsc1-c1c(Cl)nc2c(C(N)=O)cnn2c1NC(C)C(C)C` (stereo not drawn) [5-chloro-7-(1,2-dimethylpropylamino)-6-(3-methylthiophen-2-yl)pyrazolo[1,5-α]pyrimidine-3-carboxamide] yielded a chromatographic logP of 3.5.
Molecule `CSc1cnn2c(N3CCC(C)CC3)c(-c3ccc(F)cc3Cl)c(Cl)nc12` [Example I, 5-chloro-6-(2-chloro-4-fluorophenyl)-7-(4-methylpiperidin-1-yl)-3-methylmercapto-pyrazolo [2,3-a]pyrimidine] had a chromatographic logP of 5.73.
Molecule `CC1CCN(c2c(-c3ccc(F)cc3Cl)c(Cl)nc3c(S(C)(=O)=O)cnn23)CC1` [Example II, 5-chloro-6-(2-chloro-4-fluorophenyl)-7-(4-methylpiperidin-1-yl)-3-methylsulphonyl-pyrazolo[2,3-a]pyrimidine] had a chromatographic logP of 4.2.
`CC1CCN(c2c(-c3ccc(F)cc3Cl)c(Cl)nc3c(S(=O)(=O)O)cnn23)CC1` [Example III, 5-chloro-6-(2-chloro-4-fluorophenyl)-7-(4-methylpiperidin-1-yl)pyrazolo[2,3-a]pyrimidine-3-sulphonic acid] returned a chromatographic logP of 2.48.
The same measure, in the same setting: under `CC(C)NC(=O)c1cnn2c(N[C@H](C)C(C)C)c(-c3c(F)cccc3Cl)c(Cl)nc12` [Example IV, 5-chloro-6-(2-chloro-6-fluorophenyl)-7-{[(1R)-1,2-dimethylpropyl]amino}-N-isopropylpyrazolo[1,5-a]pyrimidine-3-carboxamide] stands 4.72; under `CC(C)[C@@H](C)Nc1c(-c2c(F)cccc2Cl)c(Cl)nc2c(C(=O)O)cnn12` [Example V, 5-chloro-6-(2-chloro-6-fluorophenyl)-7-{[(1R)-1,2-dimethylpropyl]amino}pyrazolo[1,5-a]pyrimidine-3-carboxylic acid], 3.24.
On to `CC(C)C(C)Nc1c(-c2ccc(F)cc2Cl)c(Cl)nc2c(-c3nnc(N)s3)cnn12` (stereo not shown) [Example XXIX], for which the chromatographic logP is 3.57.
Still for that read-out and setting: the result for `COc1nc2c(C(=O)O)cnn2c(NC(C)C(C)C)c1-c1sccc1C` (stereo not drawn) [Example XXV, 7-(1,2-dimethylpropylamino)-5-methoxy-6-(3-methylthiophen-2-yl)pyrazolo[1,5-α]pyrimidine-3-carboxylic acid] reads 3.65.
As to `Cc1ccsc1-c1c(Cl)nc2c(-c3nsc(=O)o3)cnn2c1NC(C)C(C)C` (stereo not drawn) [Example XXVI, 5-[5-Chloro-7-(1,2-dimethylpropylamino)-6-(3-methylthiophen-2-yl)pyrazolo[1,5-α]pyrimidin-3-yl]-[1,3,4]oxathiazol-2-one], the chromatographic logP came out at 5.
Take `Cc1ccsc1-c1c(Cl)nc2c(-c3ncco3)cnn2c1NC(C)C(C)C` (stereo not drawn) [Example XXVII, [5-Chloro-6-(3-methylthiophen-2-yl)-3-oxazol-2-ylpyrazolo[1,5-α]pyrimidin-7-yl](1,2-dimethyl-propyl)amine]: the chromatographic logP was 4.3.
The same measure, in the same setting: under `Cc1nnc(-c2cnn3c(O)c(-c4ccc(F)cc4Cl)c(O)nc23)o1` [Example XXX, 6-(2-Chloro-4-fluorophenyl)-3-(5-methyl-[1,3,4]oxadiazol-2-yl)pyrazolo[1,5-a]pyrimidine-5,7-diol] stands 0.67.
`Cc1nnc(-c2cnn3c(O)c(-c4ccc(F)cc4Cl)c(O)nc23)[nH]1` [Example XXXI, 6-(2-chloro-4-fluorophenyl)-3-(5-methyl-[1,3,4]triazol-2-yl)pyrazolo[1,5-a]pyrimidine-5,7-diol] yielded a chromatographic logP of 0.51.
Take `Oc1nc2c(-c3ccccn3)cnn2c(O)c1-c1ccc(F)cc1Cl` [Example XXXII, 6-(2-chloro-4-fluorophenyl)-3-pyridin-2-ylpyrazolo[1,5-a]pyrimidine-5,7-diol]: the chromatographic logP stood at 0.91.
The same measure, in the same setting: the result for `Cc1nnc(-c2cnn3c(NC(C)C(C)C)c(-c4ccc(F)cc4Cl)c(Cl)nc23)o1` (stereo not shown) [Example XXXVI] reads 3.94; that for `CNS(=O)(=O)c1cnn2c(NC(C)C(C)(C)C)c(-c3ccc(F)cc3Cl)c(Cl)nc12` (stereo not shown) [N-methyl-5-chloro-6-(2-chloro-4-fluorophenyl)-7-(1,2,2-trimethylpropylamino)pyrazolo[1,5-a]pyrimidine-3-sulphonamide], 4.09; that for `CC(C)C(C)Nc1c(-c2ccc(F)cc2Cl)c(Cl)nc2c(/C=N/NC(N)=S)cnn12` (stereo not shown) [Thiosemicarbazone of 5-chloro-6-(2-chloro-4-fluorophenyl)-7-(1,2-dimethyl-propylamino)pyrazolo[1,5-a]pyrimidine-3-carbaldehyde], 3.75.
Molecule `Cc1nnc(-c2cnn3c(NC(C)C(C)C)c(-c4ccc(F)cc4Cl)c(Cl)nc23)[nH]1` (stereo not shown) [XXXVII, [5-chloro-6-(2-chloro-4-fluorophenyl)-3-(5-methyl-[1,3,4]triazol-2-yl)pyrazolo[1,5-a]pyrimidin-7-yl](1,2-dimethylpropyl)-amine] came in with a chromatographic logP of 2.91.
Still for that read-out and setting: the result for `CC(C)C(C)Nc1c(-c2ccc(F)cc2Cl)c(Cl)nc2c(-c3ccccn3)cnn12` (stereo not shown) [XXXVIII, [5-chloro-6-(2-chloro-4-fluorophenyl)-3-pyridin-2-ylpyrazolo[1,5-a]pyrimidin-7-yl](1,2-dimethylpropyl)amine] reads 3.54.
